# Measured values from patent US8865745B2, “Pyrazolone derivatives as PDE4 inhibitors” (Takeda GmbH, priority 2007, dated 2014).
# Experiments:
# PDE4B1 = PDE4B1 (Homo sapiens (Human), UniProt Q07343); assay: Inhibition of PDE4 activity, [3H]cAMP SPA enzyme assay with recombinant PDE4B1; type: biochemical; details: recombinant PDE4B1 expressed in SF21 cells, 0.5 μM cAMP, 37° C.
# Experimental: Method for Measuring Inhibition of PDE4 Activity
# The PDE4B1 (GB no. L20966) was a gift of Prof. M. Conti (Stanford University, USA). It was amplified from the original plasmid (pCMV5) via PCR with primers Rb18 (5′-[…]-3′) and Rb10 (5′-[…]-3′) and cloned into the pCR-Bac vector (Invitrogen, Groningen, NL).
# The recombinant baculovirus was prepared by means of homologous recombination in SF9 insect cells. The expression plasmids were cotransfected with Baculo-Gold DNA (Pharmingen, Hamburg) using a standard protocol (Pharmingen, Hamburg). Wt virus-free recombinant virus supernatants were selected using plaque assay methods. After that, high-titre virus supernatants were prepared by amplifying 3 times. PDE4B1 was expressed in SF21 cells by infecting 2×10^6 cells/ml with an MOI (multiplicity of infection) between 1 and 10 in the serum-free medium Insect Express Sf9-S2 (PAA, Pasching, Austria). The cells were cultured at 28° C. for 48-72 hours, after which they were pelleted for 5-10 min at 1000×g and 4° C.
# The SF21 insect cells were resuspended, at a concentration of approx. 10^7 cells/ml, in ice-cold (4° C.) homogenization buffer (20 mM Tris, pH 8.2, containing the following additions: 140 mM NaCl, 3.8 mM KCl, 1 mM EGTA, 1 mM MgCl2, 10 mM β-mercaptoethanol, 2 mM benzamidine, 0.4 mM Pefablock, […] leupeptin, 10 μM pepstatin A, 5 μM trypsin inhibitor) and disrupted by ultrasonication. The homogenate was then centrifuged for 10 min at 1000×g and the supernatant was stored at −80° C. until subsequent use (see below). The protein content was determined by the Bradford method (BioRad, Munich) using BSA as the standard.
# PDE4B1 activity was inhibited by the compounds according to the invention in a modified SPA (scintillation proximity assay) test, supplied by Amersham Biosciences (see procedural instructions “phosphodiesterase [3H]cAMP SPA enzyme assay, code TRKQ 7090”), carried out in 96-well microtitre plates (MTP's). The test volume is 100 μl and contains 20 mM Tris buffer (pH 7.4), 0.1 mg/ml of BSA, 5 mM Mg^2+, 0.5 μM cAMP (including about 50,000 cpm of [3H]cAMP), 1 μl of the respective substance dilution in DMSO and sufficient recombinant PDE (1000×g supernatant, see above) to ensure that 10-20% of the cAMP is converted under the said experimental conditions. […] After a preincubation of 5 min at 37° C., the reaction is started by adding the substrate (cAMP) and the assays are incubated for a further 15 min; after that, they are stopped by adding SPA beads (50 μl). In accordance with the manufacturer's instructions, the SPA beads had previously been resuspended in water, but were then diluted 1:3 (v/v) in water; the diluted solution also contains 3 mM IBMX to ensure a complete PDE activity stop. After the beads have been sedimented (>30 min), the MTP's are analyzed in commercially available luminescence detection devices. The corresponding IC50 values of the compounds for the inhibition of […] activity are determined from the concentration-effect curves by means of non-linear regression.
# The inhibitory values determined for the compounds according to the invention follow from the following Table 1, in which the numbers of the compounds correspond to the numbers of the examples.
# Chain of PDE4B1 (Q07343 whole entry): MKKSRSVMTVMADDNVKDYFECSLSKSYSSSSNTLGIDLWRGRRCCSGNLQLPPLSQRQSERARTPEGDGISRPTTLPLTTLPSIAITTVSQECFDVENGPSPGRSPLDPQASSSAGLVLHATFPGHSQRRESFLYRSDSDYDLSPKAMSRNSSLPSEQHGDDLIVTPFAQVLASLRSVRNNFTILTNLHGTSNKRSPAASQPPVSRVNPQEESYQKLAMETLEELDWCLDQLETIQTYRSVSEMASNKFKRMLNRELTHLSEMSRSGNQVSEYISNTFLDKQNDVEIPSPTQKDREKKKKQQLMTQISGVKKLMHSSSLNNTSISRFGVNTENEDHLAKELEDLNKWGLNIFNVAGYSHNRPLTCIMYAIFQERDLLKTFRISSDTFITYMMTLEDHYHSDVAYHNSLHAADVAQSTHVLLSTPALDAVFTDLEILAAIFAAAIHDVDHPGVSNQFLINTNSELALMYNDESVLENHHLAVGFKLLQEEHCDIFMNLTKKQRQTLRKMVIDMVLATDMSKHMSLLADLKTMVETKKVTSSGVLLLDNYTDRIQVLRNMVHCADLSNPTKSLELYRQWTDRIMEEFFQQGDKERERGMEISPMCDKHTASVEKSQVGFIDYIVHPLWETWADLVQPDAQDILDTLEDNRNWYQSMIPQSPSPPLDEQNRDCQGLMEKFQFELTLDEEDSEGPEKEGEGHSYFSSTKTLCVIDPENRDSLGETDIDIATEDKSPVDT
SMILES,PDE4 Inhibition [measured as −logIC50 (mol/l)] (PDE4B1),melting point [°C]
"CCOc1cc(C2=NN(C3CCN(C(=O)CN4C(=O)CCC4=O)CC3)C(=O)C2(C)C)ccc1OC [Compound 7, 1-(2-{4-[3-(3-ethoxy-4-methoxyphenyl)-4,4-dimethyl-5-oxo-4,5-dihydro-1H-pyrazol-1-yl]piperidin-1-yl}-2-oxoethyl)pyrrolidine-2,5-dione]",7.65 −logIC50 (mol/l),
COc1ccc(C2=NN(C3CCN(C(=O)CN4C(=O)CCC4=O)CC3)C(=O)C2(C)C)c2c1OC1(CCCC1)C2 [Compound 9],8.23 −logIC50 (mol/l),
"COc1ccc(C2=NN(C3CCN(C(=O)CN4C(=O)c5ccccc5C4=O)CC3)C(=O)C2(C)C)cc1OC [Compound 14, 2-(2-{4-[3-(3,4-dimethoxyphenyl)-4,4-dimethyl-5-oxo-4,5-dihydro-1H-pyrazol-1-yl]piperidin-1-yl}-2-oxoethyl)-1H-isoindole-1,3(2H)-dione]",9.06 −logIC50 (mol/l),
"CCOc1ccc(C2=NN(C3CCN(C(=O)CN4C(=O)CCC4=O)CC3)C(=O)C2(C)C)cc1OCC [Compound 3, 1-(2-{-4-[3-(3,4-diethoxyphenyl)-4,4-dimethyl-5-oxo-4,5-dihydro-1H-pyrazol-1-yl]piperidin-1-yl}-2-oxoethyl)pyrrolidine-2,5-dione]",7.75 −logIC50 (mol/l),
"COc1ccc(C2=NN(C3CCN(C(=O)CN4C(=O)COCC4=O)CC3)C(=O)C2(C)C)cc1OC [Compound 1, 4-(2-{4-[3-(3,4-dimethoxyphenyl)-4,4-dimethyl-5-oxo-4,5-dihydro-1H-pyrazol-1-yl]piperidin-1-yl}-2-oxoethyl)morpholine-3,5-dione]",8.29 −logIC50 (mol/l),156 to 157
"COc1ccc(C2=NN(C3CCN(C(=O)CN4C(=O)Cc5ccccc54)CC3)C(=O)C2(C)C)cc1OC [Compound 20, 1-(2-{4-[3-(3,4-Dimethoxy-phenyl)-4,4-dimethyl-5-oxo-4,5-dihydro-pyrazol-1-yl]-piperidin-1-yl}-2-oxo-ethyl)-1,3-dihydro-2H-indol-2-one]",8.24 −logIC50 (mol/l),178
COc1ccc(C2=NN(C3CCN(C(=O)CN4C(=O)CCC4=O)CC3)C(=O)C2(C)C)c2c1OC(C)(C)C2 [Compound 8],8.53 −logIC50 (mol/l),
"COc1ccc(C2=NN(C3CCN(C(=O)CCN4C(=O)CCC4=O)CC3)C(=O)C2(C)C)cc1OC [Compound 19, 1-(3-{4-[3-(3,4-Dimethoxy-phenyl)-4,4-dimethyl-5-oxo-4,5-dihydro-pyrazol-1-yl]-piperidin-1-yl}-3-oxo-propyl)-pyrrolidine-2,5-dione]",7.48 −logIC50 (mol/l),207 to 209
"CCC1(C)C(=O)N(C2CCN(C(=O)CN3C(=O)CCC3=O)CC2)N=C1c1ccc(OC)c(OC)c1 (centres unmarked) [Compound 12, 1-(2-{4-[3-(3,4-dimethoxyphenyl)-4-ethyl-4-methyl-5-oxo-4,5-dihydro-1H-pyrazol-1-yl]piperidin-1-yl}-2-oxoethyl)pyrrolidine-2,5-dione]",7.46 −logIC50 (mol/l),
"CCCC1(C)C(=O)N(C2CCN(C(=O)CN3C(=O)CCC3=O)CC2)N=C1c1ccc(OC)c(OC)c1 (centres unmarked) [Compound 11, 1-(2-{4-[3-(3,4-dimethoxyphenyl)-4-methyl-5-oxo-4-propyl-4,5-dihydro-1H-pyrazol-1-yl]piperidin-1-yl}-2-oxoethyl)pyrrolidine-2,5-dione]",8.08 −logIC50 (mol/l),
"COc1ccc(C2=NN(C3CCN(C(=O)CN4CCCC4=O)CC3)C(=O)C2(C)C)cc1OC [Compound 16, 5-(3,4-dimethoxyphenyl)-4,4-dimethyl-2-{1-[(2-oxopyrrolidin-1-yl)acetyl]piperidin-4-yl}-2,4-dihydro-3H-pyrazol-3-one]",7.48 −logIC50 (mol/l),125 to 131
"COc1ccc(C2=NN(C3CCN(C(=O)CN4C(=O)CCC4=O)CC3)C(=O)C2(C)C)cc1OCC1CC1 [Compound 5, 1-[2-(4-{3-[3-(cyclopropylmethoxy)-4-methoxyphenyl]-4,4-dimethyl-5-oxo-4,5-dihydro-1H-pyrazol-1-yl}piperidin-1-yl)-2-oxoethyl]pyrrolidine-2,5-dione]",7.15 −logIC50 (mol/l),129 to 131
"COc1ccc(C2=NN(C3CCN(C(=O)CN4C(=O)CCC4=O)CC3)C(=O)C2(C)C)cc1OC [Compound 2, 1-(2-{4-[3-(3,4-dimethoxyphenyl)-4,4-dimethyl-5-oxo-4,5-dihydro-1H-pyrazol-1-yl]piperidin-1-yl}-2-oxoethyl)pyrrolidine-2,5-dione]",8.09 −logIC50 (mol/l),218 to 220
"COc1ccc(C2=NN(C3CCN(C(=O)CN4C(=O)CCCC4=O)CC3)C(=O)C2(C)C)cc1OC [Compound 15, 1-(2-{4-[3-(3,4-Dimethoxy-phenyl)-4,4-dimethyl-5-oxo-4,5-dihydro-pyrazol-1-yl]-piperidin-1-yl}-2-oxo-ethyl)-piperidine-2,6-dione]",7.90 −logIC50 (mol/l),
"COc1ccc(C2=NN(C3CCN(C(=O)CN4C(=O)CCC4=O)CC3)C(=O)C2(C)C)cc1OCC(F)(F)F [Compound 6, 1-[2-(4-{3-[4-methoxy-3-(2,2,2-trifluoroethoxy)phenyl]-4,4-dimethyl-5-oxo-4,5-dihydro-1H-pyrazol-1-yl}piperidin-1-yl)-2-oxoethyl]pyrrolidine-2,5-dione]",6.84 −logIC50 (mol/l),
"CC1(C)C(=O)N(C2CCN(C(=O)CN3C(=O)CCC3=O)CC2)N=C1c1ccc(OC(F)F)c(OCC2CC2)c1 [Compound 4, 1-[2-(4-{3-[3-(cyclopropylmethoxy)-4-(difluoromethoxy)phenyl]-4,4-dimethyl-5-oxo-4,5-dihydro-1H-pyrazol-1-yl}piperidin-1-yl)-2-oxoethyl]pyrrolidine-2,5-dione]",7.74 −logIC50 (mol/l),
"COc1ccc(C2=NN(C3CCN(C(=O)CN4C(=O)CCC4=O)CC3)C(=O)C23CCCC3)cc1OC [Compound 13, 1-(2-{4-[4-(3,4-dimethoxyphenyl)-1-oxo-2,3-diazaspiro[4.4]non-3-en-2-yl]piperidin-1-yl}-2-oxoethyl)pyrrolidine-2,5-dione]",7.79 −logIC50 (mol/l),
"COc1ccc(C2=NN(C3CCN(C(=O)CN4C(=O)CSCC4=O)CC3)C(=O)C2(C)C)cc1OC [Compound 17, 4-(2-{4-[3-(3,4-dimethoxyphenyl)-4,4-dimethyl-5-oxo-4,5-dihydro-1′-1-pyrazol-1-yl]piperidin-1-yl}-2-oxoethyl)thiomorpholine-3,5-dione]",8.27 −logIC50 (mol/l),
"COc1ccc(C2=NN(C3CCN(C(=O)CN4C(=O)CS(=O)(=O)CC4=O)CC3)C(=O)C2(C)C)cc1OC [Compound 18, 4-(2-{-4-[3-(3,4-dimethoxyphenyl)-4,4-dimethyl-5-oxo-4,5-dihydro-1H-pyrazol-1-yl]piperidin-1-yl}-2-oxoethyl)thiomorpholine-3,5-dione 1,1-dioxide]",8.42 −logIC50 (mol/l),146 to 148
